{"source": "patent US8709391B2", "about": "“Family of pain producing substances and methods to produce novel analgesic drugs” (Board of Regents of the University of Texas System, priority 2008, dated 2014)", "key": {"TG neurons from WT mice": {"test_system": "TG neurons from WT mice", "test": "[Ca2+]i levels in cultured TG neurons from WT mice", "format": "cell-based, mouse", "settings": "for [Ca2+]i response evoked in TG neurons / responding neurons / capsaicin-sensitive neurons: 100 μM", "description": "(§1) FIGS. 1A-H depict that endogenous TRPV1 ligands are generated upon heat insult of mouse skin. The hypothesis of heat-evoked generation of endogenous TRPV1 ligand(s) was evaluated by harvesting mouse skin and then collecting superfusate samples after 20 min exposure to basal (37° C.=“control” skin) or noxious (48° C.=“heated” skin) temperatures. Aliquots of the two superfusates were applied, at room temperature, to cultured trigeminal ganglia (TG) neurons from wild type (WT) or TRPV1 knock out (TRPV1 KO) mice for measurement of evoked increases in intracellular calcium levels [Ca^2+]i. […] Conversely, there were no changes in [Ca^2+]i after application of supernatants from heated skin to either TRPV1 KO cultures (FIG. 1B; mustard oil served as a positive control) or to WT neurons insensitive to capsaicin (data not shown).\n(§2) The pharmacological activity of synthetic 9-HODE and related compounds on sensory neurons was characterized. […] Another major metabolic pathway of linoleic acid leads to formation of 13-HODE and its metabolite, 13-oxoODE. The relative efficacy of these four compounds for evoked [Ca^2+]i levels was evident when tested in cultured neurons from WT mice (FIG. 3G) and in TRPV1-expressing CHO cells (FIG. 3H).\n(§3) The epoxy metabolite, 9,10 EpOME (also known as leukotoxin), is highly elevated in burn patients and is implicated in shock in these patients.\n(§4) FIG. 12 depicts the effect of lipids extracted from burned human skin samples against cultured trigeminal sensory neurons from control (wild type, “WT”) mice and from TRPV1 knock-out mice. Samples of burned human skin and control (non-burned) human skin from patients undergoing treatment in a hospital burn ward were obtained. The lipids from the skin samples were extracted by incubation with acetonitrile and the samples dried under nitrogen gas. The samples were tested against cultured trigeminal sensory neurons from control (wild type, “WT”) mice and from TRPV1 knock-out mice using real time imaging of calcium accumulation (fura-2 method). Extracts from human control (non burned) skin had no effect on activating neurons from either control (WT) or TRPV1 knockout (TRPV1 KO) mice. […] Thus, similar to the oxidized linoleic acid metabolites, the extracts from burned human skin activate TRPV1 and some other channels."}, "[1]": {"test_system": "TG neurons from TRPV1 KO mice", "test": "[Ca2+]i levels in cultured TG neurons from TRPV1 KO mice", "format": "cell-based, mouse", "description": "as §1, §2, §3, §4"}, "rat TG neurons [2]": {"test_system": "rat TG neurons", "test": "heat-evoked (48° C.) iCGRP release from rat TG neurons", "format": "cell-based", "settings": "NDGA 10 uM, indomethacin 2 uM, I-RTX 200 nM"}, "rat TG neurons [3]": {"test_system": "rat TG neurons", "test": "patch clamp electrophysiology, heat (48° C.)-evoked inward current (Iheat) in rat TG neurons", "format": "cell-based", "settings": "pretreatment, NDGA 30 uM, miconazole 100 uM", "description": "FIGS. 5A-D depict that interventions reducing production or action of linoleic acid oxidation products results in decreased thermal pain. Whether heat-evoked activation of rat TG neurons is inhibited by interventions directed against linoleic acid metabolites was evaluated. […] Using patch clamp electrophysiology, the local application of a heat step (48° C.) produced a strong inward current (Iheat) in TG neurons. Pretreatment with NDGA produced ˜50% reduction (p<0.05) in Iheat. (FIG. 5B). In a similar patch clamp electrophysiology set up, pretreatment with miconazole (100 uM) produced more than 75% reduction (p<0.001) in Iheat (FIG. 5C). Whether intracellular immunoneutralization against 9-HODE and 13-HODE alters the responsiveness of sensory neurons to noxious heat was evaluated next. A solution containing both anti-9-HODE and anti-13-HODE antibodies (concentrations of 0.03-0.06 ug and 0.006-0.012 ug/patch pipette respectively) was delivered intracellularly via dialysis for 5 min prior to the application of a heat step (48° C.)."}, "rats [4]": {"test_system": "rats", "test": "thermal nociception in rats after intraplantar hindpaw (ipl) injection", "format": "in vivo, rat", "settings": "100 ug/paw ipl, 15 minute, ipsilateral hindpaw", "quoted_text": "The intraplantar hindpaw (ipl) injection of NDGA, miconazole, and a combination of anti 9-HODE and anti-13-HODE was compared to morphine sulfate, a gold standard analgesic. […] The studies were performed in a separate groups of animals for each condition and by observers blinded to treatment allocation (all compounds at 100 ug/paw and antibodies were each 25 ug/paw) (FIG. 10)."}, "[5]": {"test_system": "rat trigeminal sensory neurons", "test": "linoleic acid activation of rat trigeminal sensory neurons, intracellular calcium (Fura-2)", "format": "cell-based", "settings": "pretreatment; for inhibition of the formation of linoleic acid metabolites (neuron-activating compounds): concluded from the neuron activation test", "description": "FIG. 14 depicts the effects of pretreatment with either cytochrome P450 inhibitors (NDGA, DPI, CO or ketoconazole, ODYA), nitric oxide synthase inhibitors (L-NAME, L-NNA), lipoxygenase inhibitors (BW-70C, PD, TEDC) or antioxidants (TROLOX, NAC, TEMPOL) versus negative controls (vehicle, argon) on the ability of linoleic acid to activate rat trigeminal sensory neurons as measured by real time levels of intracellular calcium (Fura-2, as indicated by the ratio of 340/380)."}, "rats [6]": {"test_system": "rats", "test": "intrathecal application, tactile allodynia in rats", "format": "in vivo, rat", "description": "FIGS. 9A-D depict that spinal injection (intrathecal) of capsaicin or 9-HODE into the spinal cord space results in tactile allodynia. This effect is mediated by activation of TRPV1 since it is blocked by a TRPV1 antagonist (AMG 9810). […] The results were compared with the results obtained with the positive control capsaicin. […] Comparison of the peak effect evoked by both capsaicin and 9-HODE is shown in FIGS. 9C-D. The effects were remarkably similar."}, "rat TG neurons [7]": {"test_system": "rat TG neurons", "test": "activation of rat TG neurons by compound(s) released from heated skin, pretreatment with TRPV1 antagonist", "format": "cell-based", "settings": "I-RTX 200 nM pretreatment; superfusates from skin exposed to 48° C.", "description": "To further characterize the TRPV1 specificity of these endogenous heat-generated compound(s), the effect of pretreatment with the TRPV1 antagonist iodo-resiniferatoxin (I-RTX) on the activation of rat TG neurons was evaluated. […] Moreover, application of these compound(s) triggered prompt increases in [Ca]i in CHO cells expressing TRPV1, but not in negative control CHO cells that expressed a GFP construct (FIGS. 1E-F). Next, initial superfusion experiments in isolated mouse skin were expanded by collecting supernatant after exposure to various temperatures and evaluating the release of endogenous TRPV1 compound(s)."}, "cultured rat TG neurons": {"test_system": "cultured rat TG neurons", "test": "CGRP release from cultured rat TG neurons evoked by 9-HODE", "format": "cell-based"}, "WT mice": {"test_system": "WT mice", "test": "hindpaw intraplantar (ipl) injection, thermal allodynia, WT mice", "format": "in vivo, mouse"}, "TRPV1 KO mice": {"test_system": "TRPV1 KO mice", "test": "hindpaw intraplantar (ipl) injection, thermal allodynia, TRPV1 KO mice", "format": "in vivo, mouse"}, "TRPV4": {"molecular_target": "T1, TRPV4 (Homo sapiens, UniProt Q9HBA0)", "T1 construct": "expressed in transfected cells; host or cells: CHO cells", "T1 sequence (Q9HBA0 whole entry, species assumed)": "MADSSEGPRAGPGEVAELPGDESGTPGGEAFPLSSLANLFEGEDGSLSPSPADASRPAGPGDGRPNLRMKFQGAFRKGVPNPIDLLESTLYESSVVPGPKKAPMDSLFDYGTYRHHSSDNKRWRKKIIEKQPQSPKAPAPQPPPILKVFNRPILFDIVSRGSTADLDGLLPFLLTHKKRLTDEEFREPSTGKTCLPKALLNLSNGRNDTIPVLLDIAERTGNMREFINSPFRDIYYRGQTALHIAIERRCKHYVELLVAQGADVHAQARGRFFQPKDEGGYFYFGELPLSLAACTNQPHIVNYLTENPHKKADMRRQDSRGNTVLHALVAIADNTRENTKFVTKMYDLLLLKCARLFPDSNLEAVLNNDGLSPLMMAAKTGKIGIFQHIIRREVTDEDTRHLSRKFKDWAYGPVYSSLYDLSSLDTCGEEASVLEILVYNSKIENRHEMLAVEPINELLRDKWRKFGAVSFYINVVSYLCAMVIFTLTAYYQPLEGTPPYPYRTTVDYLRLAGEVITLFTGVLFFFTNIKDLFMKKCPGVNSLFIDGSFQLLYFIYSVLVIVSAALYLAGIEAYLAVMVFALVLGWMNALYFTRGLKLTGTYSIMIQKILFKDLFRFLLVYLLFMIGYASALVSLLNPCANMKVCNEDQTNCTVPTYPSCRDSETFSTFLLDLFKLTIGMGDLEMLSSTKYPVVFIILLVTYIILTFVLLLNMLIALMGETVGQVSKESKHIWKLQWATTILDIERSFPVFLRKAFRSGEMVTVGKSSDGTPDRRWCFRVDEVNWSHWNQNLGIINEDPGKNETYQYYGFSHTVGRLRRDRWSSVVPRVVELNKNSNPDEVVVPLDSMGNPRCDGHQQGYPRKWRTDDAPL", "test": "[Ca2+]i in CHO cells expressing TRPV4", "format": "cell-based", "settings": "screening against other heat-sensitive TRP channels", "description": "as §3\nFIG. 13 depicts the effect of lipids, extracted from burned human skin samples, and then applied to CHO cells that expressed either TRPV1, TRPV2, TRPV3, TRPV4 or TRPA1, using real time calcium imaging. As shown, the extracts of the burned human skin activated TRPV1, TRPV3, TRPV4 and TRPA1, but not TRPV2."}}, "data": [{"smiles": "CCCCC/C=C\\C=C\\C(=O)CCCCCCCC(=O)O", "note": "[9-oxoODE, (10E,12Z)-9-oxooctadeca-10,12-dienoic acid]", "values": [{"measurement": "[Ca2+]i levels after application", "setting": "TG neurons from WT mice; concentration not given", "value": "triggered increased [Ca^2+]i levels"}, {"measurement": "[Ca2+]i levels after application", "setting": "[1]; concentration not given", "value": "not in neurons from TRPV1 KO mice"}]}, {"smiles": "CC(Cc1ccc(O)c(O)c1)C(C)Cc1ccc(O)c(O)c1", "note": "(stereo not shown) [NDGA, Nordihydroguaiaretic Acid]", "values": [{"measurement": "reversal of heat-evoked iCGRP release by pretreatment", "setting": "rat TG neurons [2]", "value": "partially reversed"}, {"measurement": "reduction in Iheat", "setting": "rat TG neurons [3]", "value": "~50", "unit": "%"}, {"measurement": "thermal antinociception", "setting": "rats [4]", "value": "thermal antinociception far beyond that of the vehicle or morphine injected rats"}]}, {"smiles": "CC(=O)N1CCN(c2ccc(OCC3COC(Cn4ccnc4)(c4ccc(Cl)cc4Cl)O3)cc2)CC1", "note": "(stereo not shown) [ketoconazole]", "values": [{"measurement": "block of the ability of linoleic acid to activate pain neurons", "setting": "[5]; Fura-2 ratio 340/380", "value": "completely blocked"}, {"measurement": "inhibition of the formation of linoleic acid metabolites (neuron-activating compounds)", "setting": "[5]", "value": "inhibits the formation of linoleic acid metabolites"}]}, {"smiles": "COc1ccc2c(c1)c(CC(=O)O)c(C)n2C(=O)c1ccc(Cl)cc1", "note": "[indomethacin]", "values": [{"measurement": "reversal of heat-evoked iCGRP release by pretreatment", "setting": "rat TG neurons [2]", "value": "not"}]}, {"smiles": "Clc1ccc(COC(Cn2ccnc2)c2ccc(Cl)cc2Cl)c(Cl)c1", "note": "(stereo not shown) [miconazole]", "values": [{"measurement": "reduction in Iheat", "setting": "rat TG neurons [3]", "value": "more than 75%"}, {"measurement": "thermal antinociception", "setting": "rats [4]", "value": "thermal antinociception far beyond that of the vehicle or morphine injected rats"}]}, {"smiles": "CC(C)(C)c1ccc(/C=C/C(=O)Nc2ccc3c(c2)OCCO3)cc1", "note": "[AMG 9810]", "values": [{"measurement": "reversal of 9-HODE-evoked tactile allodynia", "setting": "rats [6]; AMG 9810 50 ug, 9-HODE 5 ug intrathecal", "value": "completely reversible"}, {"measurement": "reversal of capsaicin-evoked tactile allodynia", "setting": "rats [6]; AMG 9810 50 ug, capsaicin 5 ug intrathecal", "value": "completely reversible"}, {"measurement": "effect alone on mechanical withdrawal thresholds", "setting": "rats [6]; antagonist alone, intrathecal", "value": "Neither the vehicle nor AMG 9810 alone had any effect"}]}, {"smiles": "C=C(C)[C@]12C[C@@H](C)[C@@]34O[C@](Cc5ccccc5)(O[C@@H]1[C@@H]3C=C(COC(=O)Cc1cc(I)c(O)c(OC)c1)C[C@]1(O)C(=O)C(C)=C[C@@H]41)O2", "note": "[I-RTX, iodo-resiniferatoxin]", "values": [{"measurement": "reversal of heat-evoked iCGRP release by pretreatment", "setting": "rat TG neurons [2]", "value": "partially reversed"}, {"measurement": "block of activation of neurons by compound(s) released from heated skin", "setting": "rat TG neurons [7]", "value": "completely blocked"}]}, {"smiles": "COc1cc(CNC(=O)CCCC/C=C/C(C)C)ccc1O", "note": "[capsaicin]", "values": [{"measurement": "duration of tactile allodynia post injection", "setting": "rats [6]; 5 ug intrathecal", "value": 1, "unit": "h"}, {"measurement": "tactile allodynia evoked by intrathecal application", "setting": "rats [6]; 5 ug intrathecal", "value": "evoked tactile allodynia"}]}, {"smiles": "CCCCC/C=C\\C=C\\C(O)CCCCCCCC(=O)O", "note": "(stereo not shown) [9-HODE, 9-hydroxyoctadecadienoic acid]", "values": [{"measurement": "[Ca2+]i response evoked in TG neurons", "setting": "TG neurons from WT mice", "value": "robust response"}, {"measurement": "responding neurons / capsaicin-sensitive neurons", "setting": "TG neurons from WT mice", "value": "75/75"}, {"measurement": "magnitude of [Ca2+]i accumulation and its time course compared to WT neurons", "setting": "[1]", "value": "greatly reduced"}, {"measurement": "responding neurons / tested neurons", "setting": "[1]", "value": "3/66"}, {"measurement": "tested neurons with a slight response", "setting": "[1]", "value": 4, "unit": "%"}, {"measurement": "concentration at which effects on CGRP release are evident", "setting": "cultured rat TG neurons", "value": 10, "unit": "nM"}, {"measurement": "EC50", "setting": "cultured rat TG neurons; read-out: EC50 of increase in CGRP release", "value": "~300", "unit": "nM"}, {"measurement": "thermal allodynia after ipl injection", "setting": "WT mice; blinded observers", "value": "significantly greater thermal allodynia"}, {"measurement": "thermal allodynia after ipl injection", "setting": "TRPV1 KO mice; blinded observers", "value": "not in TRPV1 KO mice"}, {"measurement": "tactile allodynia evoked by intrathecal application", "setting": "rats [6]; 5 ug intrathecal", "value": "evoked tactile allodynia that was of similar magnitude and duration to that of capsaicin"}]}, {"smiles": "CCCCC/C=C\\CC1OC1CCCCCCCC(=O)O", "note": "(stereo not shown) [9,10 EpOME, (12Z)-9,10-epoxyoctadecenoic acid]", "values": [{"measurement": "[Ca2+]i response evoked in TG neurons", "setting": "TG neurons from WT mice", "value": "evoked calcium accumulation only in capsaicin-sensitive neurons"}, {"measurement": "responding neurons / capsaicin-sensitive neurons", "setting": "TG neurons from WT mice", "value": "58/58"}, {"measurement": "responding neurons / tested neurons", "setting": "[1]", "value": "0/58"}, {"measurement": "thermal allodynia after ipl injection", "setting": "WT mice; 50 μg/ipl", "value": "evoked thermal allodynia"}, {"measurement": "thermal allodynia after ipl injection", "setting": "TRPV1 KO mice; 50 μg/ipl", "value": "absent"}]}, {"smiles": "CCCCCC=CCC(O)C(O)CCCCCCCC(=O)O", "note": "(stereo not shown) [9,10-DiHOME, 9(10)-dihydroxy-octadec-12-enoic acid]", "values": [{"measurement": "TRPV4 agonist activity", "setting": "TRPV4", "value": "TRPV4 agonist"}]}, {"smiles": "C#CCCCCCCCCCCCCCCCC(=O)O", "note": "[ODYA, 17-Octadecynoic acid]", "values": [{"measurement": "inhibition of the formation of linoleic acid metabolites (neuron-activating compounds)", "setting": "[5]", "value": "does not"}]}]}
